Assay results: article PMC3671792 (Biochemical Journal, 2013)

Key:
ZmCK2α = biological target: T1, ZmCK2α (Zea mays, UniProt P28523); details: 25 uM ATP, 10 mM MgCl2, pH 7.5, 30 °C; labelled compound; GST-Rh2b phosphorylated, GST-AMA1 not
T1 construct: gene ACK2

MmPKAc = biological target: T2, MmPKAc (Mus musculus, UniProt P05132); details: 25 uM ATP, 10 mM MgCl2, pH 7.5, 30 °C; labelled compound; GST-AMA1 phosphorylated, GST-Rh2b not
T2 construct: gene Prkaca

[1] = biological target: T3, PfCK2 α (CK2–HA, immunoprecipitated) (Plasmodium falciparum, UniProt Q8IIR9); experiment: phosphorylation of GST-Rh2b CPD by immunoprecipitated CK2-HA, phospho-specific Western blot; format: biochemical; details: 25 uM ATP, 10 mM MgCl2, pH 7.5, 30 °C; protein substrate GST-Rh2b CPD; kinase on beads
T3 construct: gene PF3D7_1108400; full coding region with C-terminal 3xHA tag, overexpressed episomally (crt promoter) in 3D7 parasites, immunoprecipitated on anti-HA/Protein G beads, ~42 kDa band; endogenous beta1/beta2 subunits could co-precipitate
T3 sequence (Q8IIR9 entry or part of it): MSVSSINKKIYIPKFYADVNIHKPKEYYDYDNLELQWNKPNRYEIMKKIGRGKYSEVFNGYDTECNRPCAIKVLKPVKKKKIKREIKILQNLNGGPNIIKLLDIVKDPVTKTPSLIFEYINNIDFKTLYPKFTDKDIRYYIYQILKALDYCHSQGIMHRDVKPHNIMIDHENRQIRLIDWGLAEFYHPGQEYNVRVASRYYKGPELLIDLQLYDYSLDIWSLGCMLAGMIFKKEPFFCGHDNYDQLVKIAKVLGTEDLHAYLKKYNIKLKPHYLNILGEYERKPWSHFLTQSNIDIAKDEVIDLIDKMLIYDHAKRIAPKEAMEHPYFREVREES

T1 sequence (P28523 whole entry): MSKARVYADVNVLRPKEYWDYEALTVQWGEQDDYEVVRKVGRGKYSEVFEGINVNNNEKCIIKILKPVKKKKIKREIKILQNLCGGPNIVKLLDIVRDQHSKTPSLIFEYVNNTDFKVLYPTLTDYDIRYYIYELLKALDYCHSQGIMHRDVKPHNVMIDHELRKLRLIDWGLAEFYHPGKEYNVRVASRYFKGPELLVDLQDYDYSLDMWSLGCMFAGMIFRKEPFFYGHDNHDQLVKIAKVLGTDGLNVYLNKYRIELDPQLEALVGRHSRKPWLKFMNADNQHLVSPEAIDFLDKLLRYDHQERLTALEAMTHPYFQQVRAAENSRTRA

| Compound | in vitro kinase assay with GST-Rh2b CPD, [γ-32P]ATP (ZmCK2α) | in vitro kinase assay with GST-AMA1 CPD, [γ-32P]ATP (MmPKAc) | inhibition (qualitative) [1] |
| --- | --- | --- | --- |
| Nc1ncnc2c1ncn2[C@@H]1O[C@H](COP(=O)(O)OP(=O)(O)OP(=O)(O)O)[C@@H](O)[C@H]1O [ATP] | the enzyme was able to phosphorylate GST–Rh2b | Although MmPKAc phosphorylated AMA1–GST, it showed no reactivity against GST–Rh2b |  |
| O=C(O)/C=C/c1cc(Br)c(Br)c(Br)c1Br [TBCA] |  |  | sensitive to heparin treatment (Figure 4E) and to increasing amounts of TBCA (Figure 4F) |
